Experimental data: patent publication US9802958B2, “Tetrahydro[1,8]naphthyridine sulfonamide and related compounds for use as agonists of RORy and the treatment of disease” (Lycera Corporation, priority 2012, dated 2017)

These compounds were tested against T1, RORγ-LBD (Homo sapiens, UniProt P51449) (assay: RORγ-Ligand Binding Domain (LBD) TR-FRET Assay). Conditions: assay measuring EC50 values less than or equal to 20 μM.
T1 construct: made in house; host or cells: SF9 insect cells, baculovirus; unpurified lysate used
T1 sequence (P51449 269-508 limits assumed): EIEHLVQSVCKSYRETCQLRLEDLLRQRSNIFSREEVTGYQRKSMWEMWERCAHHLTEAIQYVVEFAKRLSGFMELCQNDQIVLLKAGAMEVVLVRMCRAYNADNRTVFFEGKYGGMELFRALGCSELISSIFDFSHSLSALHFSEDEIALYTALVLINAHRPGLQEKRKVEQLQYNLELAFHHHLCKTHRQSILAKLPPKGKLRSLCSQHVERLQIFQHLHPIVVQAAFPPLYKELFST
Format: biochemical
Procedure: Exemplary compounds from the above Examples were tested for ability to increase RORγ activity using a RORγ-Ligand Binding Domain (LBD) TR-FRET Assay. Assay procedures and results are described below.
Recombinant, HIS-tagged RORγ-LBD was expressed in SF9 cells using a baculovirus expression system. Cells were lysed and the lysate was used as a source for RORγ-LBD for the assay. A 1:80 dilution of RORγ-LBD lysate in assay buffer (25 mM HEPES pH 7.0, 100 mM NaCl, 0.01% Tween, 0.1% BSA) was prepared and 5 μL was added to each well (RORγ-LBD final concentration ˜3 nM). Control wells received lysate from SF9 cells not expressing RORγ-LBD.
Compounds to be tested were diluted to 100× final test concentration in DMSO and further diluted to 4× final test concentration using assay buffer to provide the test compound mixture. An aliquot (5 μL) of the test compound mixture was added to each well.
A 4× stock of biotinylated-LXXLL peptide from SRC1-2 (Biotin-[…]) was prepared in assay buffer and a 5 μL aliquot added to each well (450 nM final concentration). A 4× solution of europium tagged anti-HIS antibody (2 nM final concentration) and APC conjugated streptavidin (60 nM final concentration) were prepared and a 5 μL aliquot added to each well.
The final assay mixture was incubated for 4 hours to overnight, and the fluorescence signal was measured on an Envision plate reader: (Excitation filter=340 nm; APC emission=665 nm; Europium emission=615 nm; dichroic mirror=D400/D630; delay time=100 μs, integration time=200 μs).
EC50 values for test compounds were calculated from the quotient of the fluorescence signal at 665 nm divided by the fluorescence signal at 615 nm using GraphPad Prism software.

Compound | promotion of RORγ activity
Cc1cccc(S(=O)(=O)N2CCOc3ccc(OC(C)c4ccccc4)nc32)c1 (stereo not drawn) [Compound 6] | No promotion of RORγ activity was detected

Same assay, conditions: increase of RORγ activity; recombinant HIS-tagged RORγ-LBD, biotinylated SRC1-2 LXXLL peptide

Compound | EC50
O=C(Nc1ccc2c(n1)N(S(=O)(=O)c1ccc(F)cc1)CCC2)c1c(F)cccc1F [Compound 1, 2,6-Difluoro-N-(8-(4-fluorobenzenesulfonyl)-5,6,7,8-tetrahydro[1,8]naphthyridin-2-yl)benzamide] | ≤ 15 µM
Cc1cccc(S(=O)(=O)N2CCOc3ccc(NC(=O)c4c(Cl)cccc4Cl)nc32)c1 [Compound 2, 2,6-Dichloro-N-[4-(toluene-3-sulfonyl)-3,4-dihydro-2H-pyrido[3,2-b][1,4]oxazin-6-yl]-benzamide] | ≤ 15 µM

Continued, values first:

EC50 | Compound
≤ 15 µM | Cc1cccc(S(=O)(=O)N2CCOc3ccc(NC(=O)C(C)c4ccccc4)nc32)c1 (stereo not drawn) [Compound 3, 2-Phenyl-N-[4-(toluene-3-sulfonyl)-3,4-dihydro-2H-pyrido[3,2-b][1,4]oxazin-6-yl]-propionamide]
≤ 15 µM | Cc1cccc(S(=O)(=O)N2CCOc3ccc(OCc4ccccc4)nc32)c1 [Compound 4]
≤ 15 µM | Cc1cccc(S(=O)(=O)N2CCOc3ccc(OCc4c(Cl)cccc4Cl)nc32)c1 [Compound 5]
